Measured values reported in patent publication US20060182728A1, “Methods for treating pervasive development disorders” (priority 1999, published 2006).

Legend:
[1] = tested on: children diagnosed as having autism; test: Fecal Chymotrypsin Test after secretin infusion in autistic children; type: in vivo, human
Method: In this experiment, 16 children diagnosed as having autism were administered the following Fecal Chymotrypsin Test in accordance with an embodiment of the invention. First, approximately 2 grams of stool were collected from each child and placed in a sterile container (although it is to be understood that any quantity of stool may be collected, as 2 grams of stool is not a required amount). Each stool sample was then analyzed using, e.g., an enzymatic photospectrometry analysis as is known by those skilled in the art, to determine the level of fecal chymotrypsin in the stool. Although the enzymatic photospectrophotometry process is preferred, any suitable conventional method may be used for measuring the fecal chymotrypsin levels. This measured chymotrypsin levels of the 16 autistic children are illustrated in FIG. 13.
After determining the chymotrypsin levels of the stools, each of these levels were compared with threshold chymotrypsin levels to determine if the child was likely to benefit from secretin administration. By way of example, with the fecal chymotrypsin tests of the stool samples being performed at 30EC, normal levels of chymotrypsin are deemed to lie above 8.4 U/gram, whereas pathologically abnormal levels are deemed to lie below 4.2 U/gram. In addition, chymotrypsin levels between 8.4 U/gram and 4.2 U/gram are considered equivocal, and further testing of the individual's fecal chymotrypsin levels over a period of time should be performed.
For each of the 16 autistic children tested, a preferred secretin infusion process according to the present invention was performed involving the administering of 1 U/kg of body weight of Secretin-Ferring for a period of nine months at intervals of approximately 6 weeks. […]
In this experiment, 37 autistic children with abnormal fecal chymotrypsin levels were administered secretin over the course of 6 months using the secretin infusion process described above. Their fecal chymotrypsin (FC) levels were measured weekly using the fecal chymotrypsin test described above.

[2] = tested on: children diagnosed with ADHD; test: Required Ritalin level of ADHD children administered secretin; type: in vivo, human; settings: each of 5 ADHD children with pathologic FC level; 6 months post-secretin vs pre-secretin
Method: A preferred secretin infusion process includes the initial step of prepping an arm of the candidate child with an IV injection of saline. A test dose of 1 U of Secretin-Ferring is then administered to the child. Approximately one minute after infusion, the child is examined for signs of allergic reaction including rash, increased heart rate, and increase of blood pressure. […] Subsequently, each child receives a 1 U/kg of body weight infusion of Secretin-Ferring approximately every 6 weeks for 9 months. It is to be understood that any commercially available form of secretin may be used.
In this experiment, the fecal chymotrypsin levels of 34 children diagnosed with ADHD were obtained using the fecal chymotrypsin test described above in Experiment 1, the levels of which are illustrated in FIG. 16. As shown, 32 children out of 34 children tested were determined to have sub-normal fecal chymotrypsin levels.
To determine the effect of secretin administration on ADHD children, 5 of the 24 children having a pathologic fecal chymotrypsin level were administered secretin using the secretin infusion process described above.

[3] = 6 Months Post-Secretin Administration, of 37 children, 0 pre-secretin

Substance: secretin
- # Autistic Children w/Equivocal FC levels [1, 3]: 2
- # Autistic Children w/normal FC levels [1, 3]: 34
- fecal chymotrypsin level post-secretin administration compared with pre-secretin ([1]; each of 16 autistic children, approximately one week after first secretin infusion, 1 U/kg IV): increased
- level of Ritalin (mg) needed to remain at the same functional level [2]: significant changes
